Patent US9963467B2, “Boronic acid derivatives and therapeutic uses thereof” (Rempex Pharmaceuticals, Inc., priority 2014, dated 2018)
pKi: −log10 of the molar value.

Legend:
[1] = molecular target: Pa AmpC (Pseudomonas aeruginosa, UniProt P24735); experiment: Ki, nitrocefin cleavage by purified enzyme, Pa AmpC; format: biochemical; conditions: nitrocefin reporter substrate; read-out: Ki (Pa AmpC, NCF)
Summary of the method: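 Preincubation 10 min RT, purified enzyme with inhibitor series in reaction buffer; reporter nitrocefin; kinetic A490, 10-sec intervals, 10 min; Ki calculated.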

[2] = system: EC1010 (CMY-6); experiment: Tigemonam potentiation (MPC@4), EC1010; format: cell-based; conditions: BLI with tigemonam at 4 μg/mL
[3] = system: KP1005 (CTX-M-14); experiment: Tigemonam potentiation (MPC@4), KP1005; format: cell-based; conditions: BLI with tigemonam at 4 μg/mL
[4] = system: ec302 (TEM-10); experiment: Aztreonam potentiation (MPC@4), ec302; format: cell-based; conditions: BLI with aztreonam at 4 μg/mL
[5] = system: ec308 (SHV-5); experiment: Tigemonam potentiation (MPC@4), ec308; format: cell-based
[6] = system: PAM1032/KPC-2; experiment: Biapenem potentiation MPC64, PAM1032/KPC-2 (efflux proficient); format: cell-based, Pseudomonas aeruginosa; conditions: BLI to decrease MIC of biapenem 64-fold; MexAB-OprM overexpressed
Experimental: Efflux of BLIs from Pseudomonas aeruginosa by the MexAB-OprM efflux pump was also evaluated. […] Due to expression of KPC-2 both strains became resistant to biapenem. […] Potency of BLIs to potentiate biapenem in these strains was determined. […] The ratio of MPC64 values for each BLI in PAM1032/KPC-2 (efflux proficient) and PAM1154/KPC-2 (efflux deficient) was determined to generate the Efflux Index (EI).

[7] = system: ec302 (TEM-10); experiment: Tigemonam potentiation (MPC@4), ec302; format: cell-based
[8] = system: KP1005 (CTX-M-14); experiment: Aztreonam potentiation (MPC@4), KP1005; format: cell-based; conditions: BLI with aztreonam at 4 μg/mL
[9] = system: KP1010 (SHV-12); experiment: Aztreonam potentiation (MPC@4), KP1010; format: cell-based
[10] = system: KP1086 (OXA-48); experiment: Biapenem potentiation (MPC@1), KP1086; conditions: BLI with biapenem at 1 μg/mL
[11] = system: KP1004 (KPC-2); experiment: Biapenem potentiation (MPC@1), KP1004; conditions: BLI with biapenem at 1 μg/mL
[12] = system: KP1009 (CTX-M-15); experiment: Tigemonam potentiation (MPC@4), KP1009; format: cell-based; conditions: BLI with tigemonam at 4 μg/mL
[13] = system: ECL1002; experiment: Tigemonam potentiation (MPC@4), ECL1002; format: cell-based; conditions: BLI with tigemonam at 4 μg/mL
[14] = system: ec308 (SHV-5); experiment: Aztreonam potentiation (MPC@4), ec308; format: cell-based; conditions: BLI with aztreonam at 4 μg/mL
[15] = system: KP1010 (SHV-12); experiment: Tigemonam potentiation (MPC@4), KP1010; format: cell-based
[16] = system: ECL1002; experiment: Aztreonam potentiation (MPC@4), ECL1002; format: cell-based; conditions: BLI with aztreonam at 4 μg/mL
[17] = system: EC1010 (CMY-6); experiment: organism not typed; format: cell-based
[18] = molecular target: P99 (Enterobacter cloacae, UniProt P05364); experiment: Ki, nitrocefin cleavage by purified enzyme, P99; format: biochemical; conditions: nitrocefin reporter substrate; read-out: Ki (P99, NCF)
Summary of the method: (§1)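 Purified enzyme was preincubated with a range of inhibitor concentrations in reaction buffer for 10 min at room temperature. Nitrocefin was then added and its cleavage followed at 490 nm every 10 sec for 10 min.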

[19] = system: KP1004 (KPC-2); experiment: Aztreonam potentiation (MPC@4), KP1004; format: cell-based; conditions: BLI with aztreonam at 4 μg/mL
[20] = molecular target: OXA-48 (Klebsiella pneumoniae, UniProt Q6XEC0); experiment: Ki, nitrocefin cleavage by purified enzyme, OXA-48; format: biochemical; conditions: nitrocefin reporter substrate; read-out: Ki (OXA-48, NCF)
Summary of the method: as §1

[21] = molecular target: SHV-12 (Klebsiella pneumoniae, UniProt P0AD64, E235K/G234S/L31Q); experiment: Ki, nitrocefin cleavage by purified enzyme, SHV-12; format: biochemical; conditions: nitrocefin reporter substrate; read-out: Ki (SHV-12, NCF)
Summary of the method: as §1

[22] = molecular target: KPC-2 (Klebsiella pneumoniae, UniProt Q9F663); experiment: Ki, nitrocefin cleavage by purified enzyme, KPC-2; format: biochemical; conditions: nitrocefin reporter substrate; read-out: Ki (KPC-2, NCF)
Summary of the method: as §1

[23] = molecular target: CTX-M-14 (Escherichia coli, UniProt Q9L5C7); experiment: Ki, nitrocefin cleavage by purified enzyme, CTX-M-14; format: biochemical; conditions: nitrocefin reporter substrate; read-out: Ki (CTX-M-14, NCF)
Summary of the method: as §1

[24] = system: KP1009 (CTX-M-15); experiment: organism not typed; format: cell-based

Chain of Pa AmpC (P24735 27-397): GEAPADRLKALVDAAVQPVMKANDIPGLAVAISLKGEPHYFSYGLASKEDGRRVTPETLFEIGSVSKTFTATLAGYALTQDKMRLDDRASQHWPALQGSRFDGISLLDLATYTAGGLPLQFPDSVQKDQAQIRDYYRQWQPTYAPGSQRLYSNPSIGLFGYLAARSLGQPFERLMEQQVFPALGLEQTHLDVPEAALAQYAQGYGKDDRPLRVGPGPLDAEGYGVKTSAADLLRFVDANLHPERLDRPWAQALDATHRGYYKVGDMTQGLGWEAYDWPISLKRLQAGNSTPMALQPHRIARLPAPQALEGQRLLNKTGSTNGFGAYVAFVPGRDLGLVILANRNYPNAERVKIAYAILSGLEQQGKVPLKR
Chain of P99 (P05364 21-381): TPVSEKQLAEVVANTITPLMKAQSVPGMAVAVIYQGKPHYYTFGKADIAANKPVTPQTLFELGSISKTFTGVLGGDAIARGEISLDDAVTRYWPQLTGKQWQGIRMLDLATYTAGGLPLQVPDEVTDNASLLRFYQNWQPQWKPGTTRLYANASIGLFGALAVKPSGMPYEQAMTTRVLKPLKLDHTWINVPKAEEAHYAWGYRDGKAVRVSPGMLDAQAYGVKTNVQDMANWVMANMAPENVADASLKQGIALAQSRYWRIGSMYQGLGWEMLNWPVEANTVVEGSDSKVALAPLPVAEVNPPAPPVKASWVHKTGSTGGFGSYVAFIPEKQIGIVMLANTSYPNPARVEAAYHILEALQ
Chain of CTX-M-14 (Q9L5C7 29-291): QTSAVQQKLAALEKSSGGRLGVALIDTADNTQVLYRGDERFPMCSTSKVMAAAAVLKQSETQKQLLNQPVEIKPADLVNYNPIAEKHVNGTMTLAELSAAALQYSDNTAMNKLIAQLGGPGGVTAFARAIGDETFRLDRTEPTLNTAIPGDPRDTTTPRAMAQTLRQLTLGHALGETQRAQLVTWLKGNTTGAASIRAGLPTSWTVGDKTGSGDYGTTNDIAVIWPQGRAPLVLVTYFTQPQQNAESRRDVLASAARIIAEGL
Chain of KPC-2 (Q9F663 25-293, looked up, species assumed): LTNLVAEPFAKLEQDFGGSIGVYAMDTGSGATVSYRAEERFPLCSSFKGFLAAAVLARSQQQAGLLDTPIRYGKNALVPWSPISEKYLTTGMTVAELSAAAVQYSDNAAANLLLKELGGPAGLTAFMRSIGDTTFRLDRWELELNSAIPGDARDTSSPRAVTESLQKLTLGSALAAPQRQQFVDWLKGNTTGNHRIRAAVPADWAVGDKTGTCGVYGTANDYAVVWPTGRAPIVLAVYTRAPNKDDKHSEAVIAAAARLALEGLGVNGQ
Chain of OXA-48 (Q6XEC0 23-265, looked up, species assumed): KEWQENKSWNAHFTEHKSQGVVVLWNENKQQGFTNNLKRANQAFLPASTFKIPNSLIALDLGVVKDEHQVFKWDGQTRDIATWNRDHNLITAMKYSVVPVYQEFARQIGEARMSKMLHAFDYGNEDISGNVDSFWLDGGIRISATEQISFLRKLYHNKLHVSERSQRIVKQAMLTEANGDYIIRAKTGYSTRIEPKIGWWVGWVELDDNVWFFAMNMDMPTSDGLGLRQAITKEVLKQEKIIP
Chain of SHV-12 (P0AD64 22-286 L31Q/G234S/E235K): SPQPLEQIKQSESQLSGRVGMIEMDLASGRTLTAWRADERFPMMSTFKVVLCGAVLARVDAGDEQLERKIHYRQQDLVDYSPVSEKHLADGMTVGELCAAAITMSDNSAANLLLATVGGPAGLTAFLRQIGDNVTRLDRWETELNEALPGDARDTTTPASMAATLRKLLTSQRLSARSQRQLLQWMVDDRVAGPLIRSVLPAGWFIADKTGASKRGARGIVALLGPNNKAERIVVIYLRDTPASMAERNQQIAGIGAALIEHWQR

| SMILES | pKi [1] | TIG MPC4 CMY-6 EC1010 [2] | TIG MPC4 CTX-M-14 KP1005 [3] | AZT MPC4 TEM-10 ec302 [4] | TIG MPC4 SHV-5 ec308 [5] | PAM1032/KPC-2 Biapenem MPC64 [6] | TIG MPC4 TEM-10 ec302 [7] | AZT MPC4 CTX-M-14 KP1005 [8] | AZT MPC4 SHV-12 KP1010 [9] | BPM MPC1 OXA-48 KP1086 [10] | BPM MPC1 KP1004 KPC-2 [11] | TIG MPC4 CTX-M-15 KP1009 [12] | TIG MPC4 ECL1002 [13] | AZT MPC4 SHV-5 ec308 [14] | TIG MPC4 SHV-12 KP1010 [15] | AZT MPC4 ECL1002 [16] | AZT MPC4 CMY-6 EC1010 [17] | pKi [18] | pKi [23] | other results |
| --- | --- | --- | --- | --- | --- | --- | --- | --- | --- | --- | --- | --- | --- | --- | --- | --- | --- | --- | --- | --- |
| O=C(CSC1CNC1)N[C@H]1Cc2cccc(C(=O)O)c2OB1O [B, reference compound] | 8.00 to 9.00 | X (MIC of less than 1 μg/mL) | Y (MIC of 1 μg/mL to 10 μg/mL) | Y (MIC of 1 μg/mL to 10 μg/mL) | Y (key: X: MIC of less than 1 ng/mL; Y: MIC of 1 μg/mL to 10 μg/mL; Z: MIC of greater than 10 μg/mL) | 2.5 | Z (key: X: MIC of less than 1 ng/mL; Y: MIC of 1 μg/mL to 10 μg/mL; Z: MIC of greater than 10 μg/mL) |  |  |  |  |  |  |  |  |  |  |  |  |  |
| O=C(CSC(F)F)N[C@H]1Cc2cccc(C(=O)O)c2OB1O [C, reference compound] | > 9.00 |  | X (MIC of less than 1 μg/mL) |  | X (key: X: MIC of less than 1 μg/mL; Y: MIC of 1 μg/mL to 10 μg/mL; Z: MIC of greater than 10 μg/mL) | 80 | Y (key: X: MIC of less than 1 ng/mL; Y: MIC of 1 μg/mL to 10 μg/mL; Z: MIC of greater than 10 μg/mL) | X (MIC of less than 1 ng/mL) | X (key: X: MIC of less than 1 ng/mL; Y: MIC of 1 μg/mL to 10 μg/mL; Z: MIC of greater than 10 μg/mL) | Y (MIC of 1 μg/mL to 10 μg/mL) | X (MIC of less than 1 μg/mL) | X (MIC of less than 1 μg/mL) | Y (MIC of 1 μg/mL to 10 μg/mL) | X (MIC of less than 1 ng/mL) | X (key: X: MIC of less than 1 μg/mL; Y: MIC of 1 μg/mL to 10 μg/mL; Z: MIC of greater than 10 μg/mL) | Y (MIC of 1 μg/mL to 10 μg/mL) | X (key: X: MIC of less than 1 ng/mL; Y: MIC of 1 μg/mL to 10 μg/mL; Z: MIC of greater than 10 μg/mL) | 8.00 to 9.00 |  |  |
| O=C(O)CC(=O)N[C@H]1Cc2cccc(C(=O)O)c2OB1O [D, reference compound] | < 8.00 | X (MIC of less than 1 μg/mL) | Z (MIC of greater than 10 μg/mL) | Z (MIC of greater than 10 μg/mL) | Y (key: X: MIC of less than 1 ng/mL; Y: MIC of 1 μg/mL to 10 μg/mL; Z: MIC of greater than 10 μg/mL) |  | Z (key: X: MIC of less than 1 ng/mL; Y: MIC of 1 μg/mL to 10 μg/mL; Z: MIC of greater than 10 μg/mL) | Y (MIC of 1 μg/mL to 10 μg/mL) | Y (key: X: MIC of less than 1 ng/mL; Y: MIC of 1 μg/mL to 10 μg/mL; Z: MIC of greater than 10 μg/mL) | Y (MIC of 1 μg/mL to 10 μg/mL) | X (MIC of less than 1 μg/mL) | Y (MIC of 1 μg/mL to 10 μg/mL) | X (MIC of less than 1 μg/mL) | Y (MIC of 1 μg/mL to 10 μg/mL) | Y (key: X: MIC of less than 1 ng/mL; Y: MIC of 1 μg/mL to 10 μg/mL; Z: MIC of greater than 10 μg/mL) | Y (MIC of 1 μg/mL to 10 μg/mL) |  | < 8.00 | > 9.00 | AZT MPC4 KPC-2 KP1004 [19]: Y (MIC of 1 μg/mL to 10 μg/mL); pKi [20]: > 9.00; pKi [21]: 8.00 to 9.00; pKi [22]: < 8.00; AZT MPC4 CTX-M-15 KP1009 [24]: Y (key: X: MIC of less than 1 ng/mL; Y: MIC of 1 μg/mL to 10 μg/mL; Z: MIC of greater than 10 μg/mL) |
| CNC(=O)CC(=O)N[C@H]1Cc2cccc(C(=O)O)c2OB1O [G, reference compound] |  | X (MIC of less than 1 μg/mL) | Y (MIC of 1 μg/mL to 10 μg/mL) | Y (MIC of 1 μg/mL to 10 μg/mL) | Y (key: X: MIC of less than 1 ng/mL; Y: MIC of 1 μg/mL to 10 μg/mL; Z: MIC of greater than 10 μg/mL) | 40 | Z (key: X: MIC of less than 1 ng/mL; Y: MIC of 1 μg/mL to 10 μg/mL; Z: MIC of greater than 10 μg/mL) | Y (MIC of 1 μg/mL to 10 μg/mL) |  |  |  |  |  |  |  |  |  |  | > 9.00 |  |
| Nc1nnc(C(=O)N[C@H]2Cc3cccc(C(=O)O)c3OB2O)s1 [H, reference compound] | > 9.00 |  | Y (MIC of 1 μg/mL to 10 μg/mL) | X (MIC of less than 1 ng/mL) | X (key: X: MIC of less than 1 μg/mL; Y: MIC of 1 μg/mL to 10 μg/mL; Z: MIC of greater than 10 μg/mL) | 80 | Y (key: X: MIC of less than 1 ng/mL; Y: MIC of 1 μg/mL to 10 μg/mL; Z: MIC of greater than 10 μg/mL) | Y (MIC of 1 μg/mL to 10 μg/mL) | X (key: X: MIC of less than 1 ng/mL; Y: MIC of 1 μg/mL to 10 μg/mL; Z: MIC of greater than 10 μg/mL) | Y (MIC of 1 μg/mL to 10 μg/mL) | X (MIC of less than 1 μg/mL) | X (MIC of less than 1 μg/mL) | X (MIC of less than 1 μg/mL) | X (MIC of less than 1 ng/mL) | X (key: X: MIC of less than 1 μg/mL; Y: MIC of 1 μg/mL to 10 μg/mL; Z: MIC of greater than 10 μg/mL) |  | X (key: X: MIC of less than 1 ng/mL; Y: MIC of 1 μg/mL to 10 μg/mL; Z: MIC of greater than 10 μg/mL) |  |  |  |
